Results reported in patent publication US20110021579A1, “PERITONEUM PROTECTING AGENT” (TOKAI UNIVERSITY EDUCATIONAL SYSTEM, priority 2005, published 2011).

Key:
[1] = system: VEGF, FGF-2, vWF, AGEs, and TGF-β1; test: Immunohistochemical analysis of mesenterium tissue sections; type: in vivo, Sprague-Dawley rats; details: rats treated with pyridoxamine; prominent in uremic rats with PD, FIG. 8
Source text: (§1) Six-week-old male Sprague-Dawley rats weighing 200±3 g (CLER Japan, Inc., Tokyo) were randomly assigned to: sham-operated control rats (Group 1: n=6); uremic rats without peritoneal dialysis (Group 2: n=12); and uremic rats undergoing peritoneal dialysis (n=24). The uremic rats undergoing peritoneal dialysis were further divided into two groups: a group dialyzed with 4.25% Dianeal (registered trademark) (3.86% glucose, 2.5 mEq/CAPD fluid, Baxter Healthcare Corp., Round Lake; IL, USA) (Group 3: n=12); and a group peritoneally dialyzed with 4.25% Dianeal (registered trademark) containing pyridoxamine (Pridorine, Biostratum Inc., NC, USA) at 5 mg/l (Group 4: n=12).
Uremic models were generated by 5/6 nephrectomy according to previous reports [Lameire N, et al. Kidney Int 54: 2194-2206, 1998; and Kleinknecht C, et al., Kidney Int 47: S51-S54, 1995]. The animals were provided free access to standard experimental rat chow (CE2: CLER Japan, Inc., Tokyo) containing 1.06% calcium, 0.9% phosphate, and 21% proteins, and tap water until the evening prior to slaughter. […]
(§2) After 6 weeks of PD, 4.25% Dianeal (registered trademark) was injected from the access port and a peritoneal equilibration test (60 minutes) was performed. […] Mesenterium was excised and assessed by light microscopy or immunohistochemistry. […]

[2] = Biochemical data and body weight of subtotally nephrectomized uremic rats undergoing peritoneal dialysis; type: in vivo; details: 6-week PD with pyridoxamine 5 mg/l (Group 4), 21 weeks, mean ± SD
Source text: as §1
(§3) Uremic models were generated by 5/6 nephrectomy according to previous reports [Lameire N, et al. Kidney Int 54: 2194-2206, 1998; and Kleinknecht C, et al., Kidney Int 47: S51-S54, 1995]. […]
(§4) After 6 weeks of PD, 4.25% Dianeal (registered trademark) was injected from the access port and a peritoneal equilibration test (60 minutes) was performed. […] Mesenterium was excised and assessed by light microscopy or immunohistochemistry.
(§5) The concentrations of glucose, creatinine, urea, total cholesterol, and triglyceride in plasma and peritoneal dialysate were measured with an autoanalyzer (Hitachi 736-60, Hitachi Co. Ltd., Tokyo).

[3] = system: pentosidine (AGE and carbonyl stress marker); test: Pentosidine content in peritoneal membrane by HPLC; type: in vivo, Sprague-Dawley rats
Source text: as §1, §3, §4
The pentosidine content in the rat peritoneal membrane was assessed as follows, using HPLC in accordance with an already-reported method [Miyata T, et al., J. Am. […] The effluent was monitored using a fluorescence detector (RF-10A: Shimadzu, Tokyo) at an excitation-emission wavelength of 335/385 nm. […]

VEGF = VEGF mRNA expression in mesenterium by semiquantitative RT-PCR; type: in vivo, Sprague-Dawley rats; details: peritoneal tissue, uremic rats with PD plus pyridoxamine, FIG. 7B
Source text: as §1, with “n=12). […]” for “n=12).”
(§6) Expression of VEGF or FGF2 (mesenterium) mRNA was analyzed by using semiquantitative reverse transcriptase-polymerase chain reaction (RT-PCR). […]
(§7) β-actin was used as an internal standard of RNA to enable comparison of RNA levels among different samples. […] The PCR products that were resolved by electrophoresis on a 2% agarose gel and stained using ethidium bromide were quantified by measuring the signal intensity with a quantitation program (NIH image software). The mRNA was determined in triplicate and the results were averaged for each experiment. […] The results were averaged and expressed as means±SD. […]

FGF-2 = FGF-2 mRNA expression in mesenterium by semiquantitative RT-PCR; type: in vivo, Sprague-Dawley rats; details: peritoneal tissue, uremic rats with PD plus pyridoxamine, FIG. 7C
Source text: as §1, with “n=12). […]” for “n=12).”
as §6, §7

[4] = system: peritoneal membrane of uremic rats; test: Functional analysis of peritoneal membrane by peritoneal equilibration test (PET); type: in vivo, Sprague-Dawley rats
Source text: as §1
Uremic models were generated by 5/6 nephrectomy according to previous reports [Lameire N, et al. Kidney Int 54: 2194-2206, 1998; and Kleinknecht C, et al., Kidney Int 47: S51-S54, 1995]. The animals were provided free access to standard experimental rat chow (CE2: CLER Japan, Inc., Tokyo) containing 1.06% calcium, 0.9% phosphate, and 21% proteins, and tap water until the evening prior to slaughter. On the 13th week, Rat-o-Ports with a 13.5 cm catheter (Access Technologies, Norfolk Medical, Skokie, Ill., USA) were implanted into all the rats under anesthetization of isoflurane. The Rat-o-ports were implanted subcutaneously in the neck, after one week of which the peritoneal dialysis with 30 ml of dialysate was initiated twice a day. The PD was continued for 6 weeks [Zweers MM, et al., Nephrol Dial Transplant 16: 651-654, 2001]. Before the initiation of the peritoneal dialysis, four, five, and two rats had died respectively in Group 2, Group 3, and Group 4. […]
as §4, §5
The dialysate/plasma (D/P) ratio of Cr (A) and urea (B), and the absorption of glucose from the dialysate (D/D0) (C) were assessed, during a 60-minute exchange with 20 ml of 3.85% glucose dialysate, in control rats (Group 1), uremic rats without PD (Group 2), uremic rats undergoing peritoneal dialysis in the absence of pyridoxamine (Group 3), and uremic rats undergoing peritoneal dialysis in the presence of 5 mg/L pyridoxamine (Group 4). a: p<0.01 vs. Group 1. b: p<0.01 vs. Group 2. c: p<0.01 vs. Group 3. d: p<0.01 vs. Group 4. e: p<0.05 vs. Group 3. f: p<0.05 vs. Group 4.

[5] = system: vessels in the peritoneal tissue; test: Number of vessels in mesenterium (von Willebrand factor staining, image analysis); type: in vivo, Sprague-Dawley rats; details: uremic rats with PD plus pyridoxamine; uremia alone 1.87-fold, PD 5.83-fold
Source text: as §1, §3, §2
The number of vessels was assessed in the sections stained for von Willebrand factor by image analysis using a WinROOF software (Mitani. Corporation, Tokyo). […]

Question: What does the source list for Cc1ncc(CO)c(CN)c1O [pyridoxamine]?
Answer: VEGF, FGF-2, vWF, AGEs, and TGF-β1 stainings in capillaries of the mesenterium [1]: only faint stainings; Body weight [2]: 419 ± 29 g; Slope of the regression line between pentosidine content and renal failure ([3]; Group 4, FIG. 5B, in words): lowered the slope of the regression line; Tissue pentosidine content ([3]; Group 4 vs Group 3, FIG. 5A): significantly lowered; VEGF mRNA expression (ratio over β-actin) (VEGF): equivalent levels to those of uremic rats without PD; FGF-2 mRNA expression (ratio over β-actin) (FGF-2): equivalent levels to those of uremic rats without PD; Absorption rate of glucose from the dialysate (D/D0) ([4]; 6-week treatment, pyridoxamine 5 mg/L in dialysate, 60-minute PET, vs Group 3): significantly lowered; Transport rate of small solutes (creatinine, urea) from the plasma (D/P ratio) ([4]; 6-week treatment, pyridoxamine 5 mg/L in dialysate, 60-minute PET, vs uremic PD rats without pyridoxamine (Group 3)): significantly lowered; Slope of the regression line between increased permeability for small solutes (creatinine and glucose) and degree of renal failure ([4]; Group 4, FIGS. 3A and B): dramatically lowered; Influence of uremia on membrane permeability ([4]; pyridoxamine treatment, uremic rats with PD): completely dissipated; Increase in vessel number (ratio to number of vessels of healthy control animals) [5]: 2.68 fold
